Data taken from ChEMBL document CHEMBL1201862, “PubChem BioAssay data set” (2004).
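Grown in 96-well plates, cells were treated for 48 hours with each compound at five concentrations. Insufficient inhibition: endpoint recorded as highest concentration tested. GI50 marks 50% less growth.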 The source made the active and inactive calls. No stated cut-off is given here; in the data, active = GI50 up to about 1.1 µM and inactive = higher.

Legend:
Assay in all cases: DTP human tumour cell line panel, 48 h
[1] = test system: SW-620
[2] = test system: SN12C
[3] = test system: NCI-H522
[4] = test system: UACC-257
[5] = test system: MOLT-4
[6] = test system: SF-295
[7] = test system: OVCAR-8
[8] = test system: NCI-H460
[9] = test system: LOX IMVI
[10] = test system: A549
[11] = test system: CCRF-CEM
[12] = test system: A498
[13] = test system: 786-0
[14] = test system: EKVX
[15] = test system: SF-268
[16] = test system: U-251
[17] = test system: Hs-578T
[18] = test system: SNB-19
[19] = test system: HCT-15
[20] = test system: UO-31
[21] = test system: SK-MEL-2
[22] = test system: MDA-MB-435
[23] = test system: ACHN
[24] = test system: MDA-MB-231
[25] = test system: K562
[26] = test system: HCC 2998
[27] = test system: HOP-62
[28] = test system: OVCAR-4
[29] = test system: SR
[30] = test system: OVCAR-5
[31] = test system: UACC-62
[32] = test system: MDA-N
[33] = test system: Malme-3M
[34] = test system: OVCAR-3
[35] = test system: NCI/ADR-RES
[36] = test system: NCI-H226
[37] = test system: KM12
[38] = test system: HT-29
[39] = test system: SK-OV-3
[40] = test system: BT-549
[41] = test system: COLO 205
[42] = test system: RPMI-8226
[43] = test system: RXF 393
[44] = test system: HOP-92
[45] = test system: SNB-75
[46] = test system: M14
[47] = test system: SK-MEL-28
[48] = test system: NCI-H23
[49] = test system: T47D
[50] = test system: MCF7
[51] = test system: TK-10
[52] = test system: DU-145
[53] = test system: HCT-116
[54] = test system: SK-MEL-5
[55] = test system: SF-539
[56] = test system: PC-3
[57] = test system: IGROV-1
[58] = test system: CAKI-1

SMILES: CN(C)CCCNc1c(C#N)[n+]([O-])c2cc(Cl)ccc2[n+]1[O-]
- GI50 [1]: 9.14 µM (inactive)
- GI50 [2]: 17.9 µM (inactive)
- GI50 [3]: 3.1 µM (inactive)
- GI50 [4]: 17.7 µM (inactive)
- GI50 [5]: 1.18 µM (inactive)
- GI50 [6]: 10.6 µM (inactive)
- GI50 [7]: 11.7 µM (inactive)
- GI50 [8]: 2.62 µM (inactive)
- GI50 [9]: 10.2 µM (inactive)
- GI50 [10]: 7.67 µM (inactive)
- GI50 [11]: 3.21 µM (inactive)
- GI50 [12]: 22.1 µM (inactive)
- GI50 [13]: 9.95 µM (inactive)
- GI50 [14]: 5.78 µM (inactive)
- GI50 [15]: 8.89 µM (inactive)
- GI50 [16]: 15.2 µM (inactive)
- GI50 [17]: 31.6 µM (inactive)
- GI50 [18]: 26.2 µM (inactive)
- GI50 [19]: 3.75 µM
- GI50 [20]: 13.4 µM (inactive)
- GI50 [21]: 9.62 µM (inactive)
- GI50 [22]: 17.3 µM (inactive)
- GI50 [23]: 5.5 µM (inactive)
- GI50 [24]: 10.4 µM (inactive)
- GI50 [25]: 3.92 µM (inactive)
- GI50 [26]: 5.53 µM (inactive)
- GI50 [27]: 11.4 µM (inactive)
- GI50 [28]: 4.75 µM (inactive)
- GI50 [29]: 0.867 µM (active)
- GI50 [30]: > 61.7 µM (inactive)
- GI50 [31]: 5.48 µM (inactive)
- GI50 [32]: 17.7 µM (inactive)
- GI50 [33]: 3.85 µM (inactive)
- GI50 [34]: 5.68 µM (inactive)
- GI50 [35]: 13.2 µM (inactive)
- GI50 [36]: 12.4 µM (inactive)
- GI50 [37]: 7.73 µM (inactive)
- GI50 [38]: 5.58 µM (inactive)
- GI50 [39]: 18.3 µM (inactive)
- GI50 [40]: 6.79 µM (inactive)
- GI50 [41]: 4.84 µM (inactive)
- GI50 [42]: 3.27 µM (inactive)
- GI50 [43]: 21.2 µM (inactive)
- GI50 [44]: 2.69 µM (inactive)
- GI50 [45]: 31.9 µM (inactive)
- GI50 [46]: 8.13 µM (inactive)
- GI50 [47]: 65.5 µM (inactive)
- GI50 [48]: 7.74 µM (inactive)
- GI50 [49]: 11.4 µM (inactive)
- GI50 [50]: 9.38 µM (inactive)
- GI50 [51]: 6.4 µM (inactive)
- GI50 [52]: 21.2 µM (inactive)
- GI50 [53]: 7.18 µM (inactive)
- GI50 [54]: 5.02 µM (inactive)
- GI50 [55]: 14.1 µM (inactive)
- GI50 [56]: 4.91 µM (inactive)
- GI50 [57]: 1.71 µM (inactive)
- GI50 [58]: 7.91 µM (inactive)

SMILES: O=C(O)C(O)c1ccc(F)cc1 (stereo unspecified)
- GI50 [1]: > 100 µM (inactive)
- GI50 [2]: > 100 µM (inactive)
- GI50 [3]: > 100 µM (inactive)
- GI50 [4]: > 100 µM (inactive)
- GI50 [5]: > 100 µM (inactive)
- GI50 [6]: > 100 µM (inactive)
- GI50 [7]: > 100 µM (inactive)
- GI50 [8]: > 100 µM (inactive)
- GI50 [9]: > 100 µM (inactive)
- GI50 [10]: > 100 µM (inactive)
- GI50 [12]: > 100 µM (inactive)
- GI50 [13]: > 100 µM (inactive)
- GI50 [14]: > 100 µM (inactive)
- GI50 [15]: > 100 µM (inactive)
- GI50 [16]: > 100 µM (inactive)
- GI50 [17]: > 100 µM (inactive)
- GI50 [18]: > 100 µM (inactive)
- GI50 [19]: > 100 µM
- GI50 [20]: > 100 µM (inactive)
- GI50 [21]: > 100 µM (inactive)
- GI50 [22]: > 100 µM (inactive)
- GI50 [23]: > 100 µM (inactive)
- GI50 [24]: > 100 µM (inactive)
- GI50 [25]: > 100 µM (inactive)
- GI50 [27]: > 100 µM (inactive)
- GI50 [28]: > 100 µM (inactive)
- GI50 [29]: > 100 µM (inactive)
- GI50 [30]: > 100 µM (inactive)
- GI50 [31]: > 100 µM (inactive)
- GI50 [32]: > 100 µM (inactive)
- GI50 [33]: > 100 µM (inactive)
- GI50 [34]: > 100 µM (inactive)
- GI50 [35]: > 100 µM (inactive)
- GI50 [37]: > 100 µM (inactive)
- GI50 [38]: > 100 µM (inactive)
- GI50 [39]: > 100 µM (inactive)
- GI50 [40]: > 100 µM (inactive)
- GI50 [42]: > 100 µM (inactive)
- GI50 [43]: > 100 µM (inactive)
- GI50 [44]: > 100 µM (inactive)
- GI50 [45]: > 100 µM (inactive)
- GI50 [46]: > 100 µM (inactive)
- GI50 [47]: > 100 µM (inactive)
- GI50 [48]: > 100 µM (inactive)
- GI50 [49]: > 100 µM (inactive)
- GI50 [50]: > 100 µM (inactive)
- GI50 [51]: > 100 µM (inactive)
- GI50 [52]: > 100 µM (inactive)
- GI50 [53]: > 100 µM (inactive)
- GI50 [56]: > 100 µM (inactive)
- GI50 [57]: > 100 µM (inactive)
- GI50 [58]: > 100 µM (inactive)

SMILES: CNC(=O)OCC1=C(COC(=O)NC)CN(c2ccccc2)C1
- GI50 [1]: > 100 µM (inactive)
- GI50 [2]: > 100 µM (inactive)
- GI50 [4]: > 100 µM (inactive)
- GI50 [5]: > 100 µM (inactive)
- GI50 [6]: > 100 µM (inactive)
- GI50 [7]: > 100 µM (inactive)
- GI50 [8]: > 100 µM (inactive)
- GI50 [9]: > 100 µM (inactive)
- GI50 [10]: > 100 µM (inactive)
- GI50 [11]: > 100 µM (inactive)
- GI50 [12]: > 100 µM (inactive)
- GI50 [13]: > 100 µM (inactive)
- GI50 [14]: > 100 µM (inactive)
- GI50 [15]: > 100 µM (inactive)
- GI50 [16]: > 100 µM (inactive)
- GI50 [17]: > 100 µM (inactive)
- GI50 [18]: > 100 µM (inactive)
- GI50 [19]: > 100 µM
- GI50 [20]: > 100 µM (inactive)
- GI50 [21]: > 100 µM (inactive)
- GI50 [22]: > 100 µM (inactive)
- GI50 [23]: > 100 µM (inactive)
- GI50 [24]: > 100 µM (inactive)
- GI50 [25]: > 100 µM (inactive)
- GI50 [26]: > 100 µM (inactive)
- GI50 [27]: > 100 µM (inactive)
- GI50 [28]: > 100 µM (inactive)
- GI50 [29]: > 100 µM (inactive)
- GI50 [30]: > 100 µM (inactive)
- GI50 [31]: > 100 µM (inactive)
- GI50 [32]: > 100 µM (inactive)
- GI50 [33]: > 100 µM (inactive)
- GI50 [34]: > 100 µM (inactive)
- GI50 [35]: > 100 µM (inactive)
- GI50 [36]: > 100 µM (inactive)
- GI50 [37]: > 100 µM (inactive)
- GI50 [38]: > 100 µM (inactive)
- GI50 [39]: > 100 µM (inactive)
- GI50 [40]: > 100 µM (inactive)
- GI50 [41]: > 100 µM (inactive)
- GI50 [42]: > 100 µM (inactive)
- GI50 [43]: > 100 µM (inactive)
- GI50 [44]: > 100 µM (inactive)
- GI50 [45]: > 100 µM (inactive)
- GI50 [46]: > 100 µM (inactive)
- GI50 [47]: > 100 µM (inactive)
- GI50 [48]: > 100 µM (inactive)
- GI50 [49]: > 100 µM (inactive)
- GI50 [50]: > 100 µM (inactive)
- GI50 [51]: > 100 µM (inactive)
- GI50 [52]: > 100 µM (inactive)
- GI50 [53]: > 100 µM (inactive)
- GI50 [54]: > 100 µM (inactive)
- GI50 [55]: > 100 µM (inactive)
- GI50 [56]: > 100 µM (inactive)
- GI50 [57]: > 100 µM (inactive)
